{"source": "patent US7919577B2", "about": "“Adrenocorticotropic hormone analogs and related methods” (Colorado Seminary, priority 2004, dated 2011)", "tested_on": "dexamethasone-suppressed male FVB/N mice", "assay": "in vivo Serum Corticosteroid Induction Assay (Example 1)", "parameters": "species or system mouse", "conditions": "relative to unmodified mACTH(1-24); 1 μg subcutaneously to dexamethasone-suppressed mice; blood one hour later", "protocol": "An in vivo Serum Corticosteroid Induction Assay measures the level of corticosteroid or corticosterone in the blood stream of a subject. More specifically, the in vivo Serum Corticosteroid Induction Assay can include the following steps: first, an agent to suppress endogenous ACTH production was administered to a mouse subject, such as an intraperitoneal injection of dexamethasone; second, after waiting a suitable period of time for suppression of endogenous ACTH production (e.g., 1.5-2.0 hours), a test compound can be administered to the mouse by a suitable method, such as intraperitoneal or subcutaneous injection; and third, after waiting a suitable period of time (e.g., 1 hour) for action of the injected test compound, a blood sample can be taken from the subject and the level of serum corticosterone can be determined by a suitable method, such as a competitive radioimmunoassay using ^125I RIA kit (ICN, Costa Mesa, Calif.). Example 1 describes a murine in vivo Serum Corticosteroid Induction Assay in detail.\nThe corticosteroid or corticosterone secretion induced in vivo by an ACTH analog compound was compared to the level of corticosteroid secretion produced by an unmodified ACTH compound by measuring blood serum corticosteroid after administering either the ACTH or ACTH analog as test compounds. […] ACTH analog compositions with decreased function were identified by measuring corticosterone levels using standard radioimmunoassay (RIA) analysis on blood samples collected one hour after administering the mACTH(1-24) or ACTH analog compound to dexamethasone-suppressed mice. In FIG. 1, the potency of various ACTH analog peptides is expressed as percent induction of corticosterone, with mouse ACTH being 100%. […] The percent of corticosterone induction 12 of ACTH analog Compounds in Samples 2-10 are shown as a percentage of the concentration of serum corticosterone 20 measured for unmodified mACTH(1-24) in the in vivo Serum Corticosteroid Adrenal Induction Assay. The structural modifications and measured percentage reduction in serum measured for Samples 2-10 in FIG. 1 are shown in Table 3 below.\nThe in vivo Serum Corticosteroid Induction Assay was performed according the following method. First, two to three month-old male FVB/N mice from our colony, five per group, were injected intraperitoneally with dexamethasone (0.4 mg/0.1 ml PBS per mouse; Sigma, St. Louis, Mo.) to suppress their endogenous ACTH production. See Hajos, G T et al., “Studies of the potency of polypeptides with ACTH action by a new method based on continuous measurement of plasma corticosterone,” Steroids Lipids Res 3:225-228 (1972), Costa, J L, et al., “Mutational analysis of evolutionarily conserved ACTH residues,” Gen Comp Endocrinol, 136:12-16 (2004), and Karpac, J, et al., “Development, Maintenance, and Function of the Adrenal Gland in Early Postnatal Pro-opiomelanocortin Null Mutant Mice,” Endocrinology (2005), published online ahead of print Feb. 24, 2005, all of which are incorporated herein by reference.\nSecond, ninety to one hundred twenty minutes later, the dexamethasone-suppressed mice were injected subcutaneously between the shoulder blades with either unmodified mACTH(1-24) or one of several ACTH analog peptide compounds (1 μg/0.1 mL PBS/0.5% BSA), or with vehicle alone (control) (0.1 mL PBS/0.5% BSA). The following ACTH analog peptide compounds were administered to separate mice: 1: murine ACTH1-24; 2: V26F,E30K; 3: P19W,K21E,Y23R; 4: E30K,P36R; 5: ALA19-24; 6: V26F,P36R; 7: P19W, K21E; 8: P19W,K21A,delY23; 9: P19W,K21A; 10: KRRP16-19RAAW (AT814) (SEQ ID NO:20).\nThird, one hour later, blood was collected within less than 1 minute from a small incision in the tail, and serum was flash-frozen and stored at −80° C. until assayed. Serum corticosterone was determined by competitive radioimmunoassay (^125I RIA kit; ICN, Costa Mesa, Calif.) according to the manufacturer's recommendations. One microliter of serum was used per assay sample. […]", "note": "No end group written: not given here."}
{"substance": "N-Ser^1-Tyr-Ser-Met-Glu^5-His-Phe-Arg-Trp-Gly^10-Lys-Pro-Val-Gly-Lys^15-Arg-Ala-Ala-Trp-Val^20-Lys-Val-Tyr-Pro-Ac (SYSMEHFRWGKPVGKRAAWVKVYP; not fully specified; printed as N-Ser1-Tyr-Ser-Met-Glu5-His-Phe-Arg-Trp-Gly10-Lys-Pro-Val-Gly-Lys15-Arg-Ala-Ala-Trp-Val20-Lys-Val-Tyr-Pro-Ac) [AT814]", "values": [{"measurement": "Percent reduction in serum corticosteroid", "value": 100, "unit": "%"}]}
